# Laboratory results from ChEMBL document CHEMBL1201862, “PubChem BioAssay data set” (2004).
#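 Each compound was tested at five concentrations against cells in 96-well plates for 48 hours. GI50: concentration for 50% inhibition of growth.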 Activity calls are given as the source filed them. Cut-off read from the data, not from the text of the source: active = GI50 up to about 1.1 µM and inactive = higher.
# Key:
# Assay in all cases: inhibition of tumour cell growth, NCI panel, 48 h
# ACHN = test system: ACHN
# TK-10 = test system: TK-10
# OVCAR-3 = test system: OVCAR-3
# M14 = test system: M14
# CCRF-CEM = test system: CCRF-CEM
# SF-295 = test system: SF-295
# SF-268 = test system: SF-268
# HCT-116 = test system: HCT-116
# HOP-92 = test system: HOP-92
# SR = test system: SR
# HL-60 = test system: HL-60
# SF-539 = test system: SF-539
# UO-31 = test system: UO-31
# 786-0 = test system: 786-0
# OVCAR-8 = test system: OVCAR-8
# OVCAR-5 = test system: OVCAR-5
# SK-MEL-5 = test system: SK-MEL-5
# COLO 205 = test system: COLO 205
# A498 = test system: A498
Structure (SMILES),GI50 (ACHN),GI50 (TK-10),GI50 (OVCAR-3),GI50 (M14),GI50 (CCRF-CEM),GI50 (SF-295),GI50 (SF-268),GI50 (HCT-116),GI50 (HOP-92),GI50 (SR),GI50 (HL-60),GI50 (SF-539),GI50 (UO-31),GI50 (786-0),GI50 (OVCAR-8),GI50 (OVCAR-5),GI50 (SK-MEL-5),GI50 (COLO 205),GI50 (A498)
O=C(/C=C/c1ccccc1F)C(c1ccccc1)c1ccccc1,2.56 µM (inactive),4.72 µM (inactive),3.97 µM (inactive),2.62 µM (inactive),2.31 µM (inactive),2.06 µM (inactive),3.11 µM (inactive),2.24 µM (inactive),2 µM (inactive),3.41 µM (inactive),3.07 µM (inactive),2.2 µM (inactive),12.3 µM (inactive),2.42 µM (inactive),–,–,–,–,–
Cc1c2[nH]c3ccc(Br)cc3c2c(C)c2nccc(O)c12,10.1 µM (inactive),12.8 µM (inactive),14.6 µM (inactive),12.8 µM (inactive),7.35 µM (inactive),14.5 µM (inactive),14.8 µM (inactive),13.8 µM (inactive),–,12.1 µM (inactive),12.1 µM (inactive),15.6 µM (inactive),11.1 µM (inactive),11.1 µM (inactive),20.7 µM (inactive),14.5 µM (inactive),22.3 µM (inactive),12.5 µM (inactive),–
COc1ccccc1N1C(Cl)C(=O)C1c1c[nH]c2ccccc12 (stereo not drawn),–,> 100 µM (inactive),> 100 µM (inactive),> 100 µM (inactive),> 100 µM (inactive),> 100 µM (inactive),> 100 µM (inactive),> 100 µM (inactive),> 100 µM (inactive),> 100 µM (inactive),> 100 µM (inactive),> 100 µM (inactive),> 100 µM (inactive),–,> 100 µM (inactive),13.2 µM (inactive),> 100 µM (inactive),> 100 µM (inactive),–
Cn1c(=O)nc2n(-c3ccc(Cl)cc3Cl)c3ccccc3nc-2c1=O,–,26.2 µM (inactive),2.1 µM (inactive),1.76 µM (inactive),–,2.33 µM (inactive),25.9 µM (inactive),2.18 µM (inactive),7.21 µM (inactive),19.2 µM (inactive),3.18 µM (inactive),6.58 µM (inactive),12 µM (inactive),–,2.74 µM (inactive),33.8 µM (inactive),1.41 µM (inactive),1.7 µM (inactive),–
O=C(c1ccccc1)[C@@H]1C[C@H](Sc2ccccc2)c2cc(Cl)ccc2N1,29.2 µM (inactive),25.2 µM (inactive),23 µM (inactive),28.2 µM (inactive),–,28.1 µM (inactive),19 µM (inactive),23.1 µM (inactive),–,14 µM (inactive),–,16.9 µM (inactive),12.7 µM (inactive),18.2 µM (inactive),23.4 µM (inactive),37.6 µM (inactive),11.7 µM (inactive),45.5 µM (inactive),11.5 µM (inactive)
O=C(/C=C/CC(O)(c1ccccc1)c1ccccc1)Nc1ccccc1Cl,> 100 µM (inactive),> 100 µM (inactive),> 100 µM (inactive),> 100 µM (inactive),> 100 µM (inactive),> 100 µM (inactive),> 100 µM (inactive),> 100 µM (inactive),> 100 µM (inactive),> 100 µM (inactive),> 100 µM (inactive),–,> 100 µM (inactive),–,> 100 µM (inactive),> 100 µM (inactive),> 100 µM (inactive),> 100 µM (inactive),> 100 µM (inactive)
O=C(Nc1ccc([N+](=O)[O-])cc1[N+](=O)[O-])C(=O)C(C(=O)c1ccc2ccccc2c1)C1OC(=O)c2ccccc21 (stereo not drawn),25.6 µM (inactive),24.1 µM (inactive),–,15.9 µM (inactive),9.51 µM (inactive),13.5 µM (inactive),8.89 µM (inactive),17.6 µM (inactive),17.8 µM (inactive),0.817 µM (active),12.3 µM (inactive),4.5 µM (inactive),14 µM (inactive),–,10 µM (inactive),20.2 µM (inactive),15.3 µM (inactive),15.8 µM (inactive),17.6 µM (inactive)
O=C(CCC(=O)Nc1ccc(Cl)c(Cl)c1)CC(=O)c1ccc(Br)cc1,71.8 µM (inactive),> 100 µM (inactive),> 100 µM (inactive),> 100 µM (inactive),> 100 µM (inactive),–,> 100 µM (inactive),> 100 µM (inactive),> 100 µM (inactive),–,–,> 100 µM (inactive),> 100 µM (inactive),> 100 µM (inactive),> 100 µM (inactive),> 100 µM (inactive),> 100 µM (inactive),> 100 µM (inactive),> 100 µM (inactive)
CC(C)C1CN(C(=O)OCc2ccccc2)C2N1C(=O)C2(C)OCc1ccccc1 (stereo not drawn),33 µM (inactive),42.9 µM (inactive),> 100 µM (inactive),36.1 µM (inactive),28.1 µM (inactive),34.8 µM (inactive),44.6 µM (inactive),37.6 µM (inactive),–,29.2 µM (inactive),22.6 µM (inactive),56 µM (inactive),20.3 µM (inactive),49.3 µM (inactive),45.4 µM (inactive),–,16 µM (inactive),19.1 µM (inactive),26.8 µM (inactive)
C=C(CCCO)[C@@H]1CC[C@@](C)(O)[C@H]1C,> 100 µM (inactive),> 100 µM (inactive),> 100 µM (inactive),–,–,> 100 µM (inactive),–,> 100 µM (inactive),–,> 100 µM (inactive),–,> 100 µM (inactive),> 100 µM (inactive),> 100 µM (inactive),> 100 µM (inactive),> 100 µM (inactive),> 100 µM (inactive),> 100 µM (inactive),–
CC1(C)CC(=O)C2=C(C1)NC1=C(C(=O)CC(C)(C)C1)C2c1ccc([N+](=O)[O-])cc1,> 100 µM (inactive),> 100 µM (inactive),> 100 µM (inactive),> 100 µM (inactive),–,> 100 µM (inactive),> 100 µM (inactive),> 100 µM (inactive),> 100 µM (inactive),–,> 100 µM (inactive),> 100 µM (inactive),> 100 µM (inactive),> 100 µM (inactive),> 100 µM (inactive),> 100 µM (inactive),> 100 µM (inactive),> 100 µM (inactive),> 100 µM (inactive)
C/C(CC(=O)NCCc1ccccc1)=N\NS(=O)(=O)c1ccc(C)cc1,> 100 µM (inactive),> 100 µM (inactive),> 100 µM (inactive),> 100 µM (inactive),> 100 µM (inactive),> 100 µM (inactive),> 100 µM (inactive),> 100 µM (inactive),> 100 µM (inactive),–,> 100 µM (inactive),> 100 µM (inactive),> 100 µM (inactive),> 100 µM (inactive),> 100 µM (inactive),> 100 µM (inactive),> 100 µM (inactive),> 100 µM (inactive),> 100 µM (inactive)
